Data: patent US9260439B2, “Dihydropyrrolopyrimidine derivatives” (PFIZER INC., priority 2014, dated 2016)
Structures can show the parent of a compound that is named as a salt.

Target: full-length PI3Kα (full-length p110α/p85α) (Homo sapiens (Human), UniProt P42336)
Test: PI3KA_FL fluorescence polarization kinase assay (Ki)
Assay type: biochemical
Details: 41 μM ATP
Source text: Enzyme Production for Biochemical Assays: 1) PI3Kα Complex (Full Length p110α and p85α)(“PI3KA_FL”)
Genes encoding for full length p110α and p85α subunits of PI3Kα complex were subcloned from existing constructs into pFASTBAC Dual vector (Life Technologies, Carlsbad, Calif.) using standard cloning procedures. Gene encoding p110α subunit was subcloned into polyhedrine promoter while gene encoding p85α subunit was subcloned into p10 promoter. Additionally, sequence encoding for histidine tag and Tobacco Etch Virus (“TEV”) cleavage site preceded p110α ORF (Open Reading Frame). Recombinant baculovirus was generated using Bac-to-Bac protocol (Life Technologies, Carlsbad, Calif.) and large scale expression was conducted in Sf21 (Life Technologies, Carlsbad, Calif.) cells at a multiplicity of infection (“MOI”)=1 for 72 hours. Cells were lyzed in 50 mM Tris pH 8.0, 250 mM NaCl, 5% glycerol, 0.25 mM TCEP, and 20 mM imidazole. The PI3Kα complex was purified from clarified supernatant using Immobilized Metalo Affinity Chromatography (“IMAC”). The protein was eluted from the column using 50 mM Tris pH 8.0, 200 mM NaCl, 5% glycerol, 0.25 mM TCEP, and 200 mM imidazole, and further desalted into 50 mM Tris pH 8.0, 20 mM NaCl, and 0.25 mM TCEP prior to loading on MonoQ sepharose (GE Healthcare, Piscataway, N.J.). PI3Kα complex was eluted from MonoQ sepharose over 20 column volumes using 0-30% gradient of buffer B (50 mM Tris pH 8.0, 1 M NaCl, and 0.25 mM TCEP). The peak fractions were pulled together and loaded on Superdex 200 26/60 SEC column equilibrated in 50 mM Tris pH 8.0, 200 mM NaCl, and 0.5 mM TCEP. […] Purity and integrity of the complex was confirmed using LCMS, analytical SEC and SDS-PAGE (sodium dodecyl sulfate polyacrylamide gel electrophoresis) analysis.
The biochemical assays of kinase activity of full-length PI3Kα (full-length p110α/p85a) or truncated PI3Kα (p110α/iSH2 p85a) were conducted using a fluorescence polarization format similar to the procedure of Yuan J., et al., (2011) “PF-04691502, a Potent and Selective Oral Inhibitor of PI3K and mTOR Kinases with Antitumor Activity”, Mol Cancer Ther. 10, 2189-2199. The enzymatic reactions were conducted in 50 μL volumes in 96-well plates. The reactions contained human recombinant PI3Kα (2 nM full-length p110α/p85α or 0.5 nM p110α/iSH2 p85) and 30 μM phosphatidylinositol 4,5-bisphosphate (“PIP2”) (Cayman Chemical Company, Ann Arbor, Mich.) and were sonicated for 1 minute prior to adding PI3Kα enzyme (PI3KA_Act or PI3KA_FL), DMSO or test compound (12-point 3-fold serial dilution, 3 μM top dose, 2° A) DMSO final concentration), 5 mM MgCl2, 50 mM HEPES pH 7.4, 150 mM NaCl, 1 mM DTT ((2S,3S)-1,4-bis(sulfanyl)butane-2,3-diol), and 0.05% 3-[(3-cholamidopropyl)dimethylammonio]-1-propanesulfonate (“CHAPS”). […] The reactions were incubated for 30 min at room temperature, stopped with EDTA pH 8 (10 mM final concentration). In a detection plate, 15 μL of detector/probe mixture, containing 480 nM GST-Grp1 PH domain protein (University of Dundee, Dundee, UK) and 12 nM carboxytetramethylrhodamine (“TAMRA”)-tagged fluorescent phosphatidylinositol (3,4,5)-triphosphate (“PIP3”) (Echelon Biosciences, Inc., Salt Lake City, Utah) in assay buffer, was mixed with 15 μL of kinase reaction mixture. The plate was shaken for 30 minutes and fluorescence polarization values were measured on an LJL Analyst HT plate reader (Molecular Devices, Sunnyvale, Calif.). […] The inhibition constants (Ki) were calculated by fitting fluorescence polarization values, corresponding to initial reaction rates, to the Morrison equation (Morrison, J. F. (1969) Kinetics of the reversible inhibition of enzyme catalysed reactions by tight-binding inhibitors. Biochim. Biophys. Acta 185, 269-286) for tight-binding competitive inhibitors using non-linear regression method (GraphPad Prism, GraphPad Software, San Diego, Calif.).

full-length PI3Kα (full-length p110α/p85α), sequence (P42336 whole entry): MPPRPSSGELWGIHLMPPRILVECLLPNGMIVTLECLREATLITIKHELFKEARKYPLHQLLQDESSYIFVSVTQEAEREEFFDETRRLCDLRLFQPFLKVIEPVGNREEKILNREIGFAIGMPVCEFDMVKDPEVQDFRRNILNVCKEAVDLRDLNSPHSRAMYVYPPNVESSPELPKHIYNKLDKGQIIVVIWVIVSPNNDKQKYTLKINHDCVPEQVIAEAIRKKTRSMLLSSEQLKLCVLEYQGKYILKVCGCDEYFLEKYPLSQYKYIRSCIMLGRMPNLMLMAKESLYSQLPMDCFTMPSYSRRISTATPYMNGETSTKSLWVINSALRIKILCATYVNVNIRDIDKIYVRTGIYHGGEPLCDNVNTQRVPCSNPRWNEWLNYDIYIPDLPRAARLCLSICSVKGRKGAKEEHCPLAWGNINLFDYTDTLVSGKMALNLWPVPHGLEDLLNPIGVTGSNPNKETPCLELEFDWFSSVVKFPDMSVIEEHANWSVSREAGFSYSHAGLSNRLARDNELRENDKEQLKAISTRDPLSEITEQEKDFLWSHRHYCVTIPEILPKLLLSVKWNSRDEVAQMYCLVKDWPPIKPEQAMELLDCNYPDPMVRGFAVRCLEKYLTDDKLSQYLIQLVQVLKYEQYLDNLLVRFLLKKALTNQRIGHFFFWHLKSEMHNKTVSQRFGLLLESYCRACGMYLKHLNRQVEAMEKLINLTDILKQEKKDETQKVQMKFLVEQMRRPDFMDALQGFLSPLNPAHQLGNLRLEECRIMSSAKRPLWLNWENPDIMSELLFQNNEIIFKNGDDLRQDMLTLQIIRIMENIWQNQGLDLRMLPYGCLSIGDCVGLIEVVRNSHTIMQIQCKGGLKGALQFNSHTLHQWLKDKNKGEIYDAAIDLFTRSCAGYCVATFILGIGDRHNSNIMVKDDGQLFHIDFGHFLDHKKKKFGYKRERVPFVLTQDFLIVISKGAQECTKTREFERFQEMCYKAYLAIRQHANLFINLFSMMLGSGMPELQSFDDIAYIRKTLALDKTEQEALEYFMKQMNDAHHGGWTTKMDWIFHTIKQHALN
full-length PI3Kα (full-length p110α/p85α), sequence (P27986 whole entry partner): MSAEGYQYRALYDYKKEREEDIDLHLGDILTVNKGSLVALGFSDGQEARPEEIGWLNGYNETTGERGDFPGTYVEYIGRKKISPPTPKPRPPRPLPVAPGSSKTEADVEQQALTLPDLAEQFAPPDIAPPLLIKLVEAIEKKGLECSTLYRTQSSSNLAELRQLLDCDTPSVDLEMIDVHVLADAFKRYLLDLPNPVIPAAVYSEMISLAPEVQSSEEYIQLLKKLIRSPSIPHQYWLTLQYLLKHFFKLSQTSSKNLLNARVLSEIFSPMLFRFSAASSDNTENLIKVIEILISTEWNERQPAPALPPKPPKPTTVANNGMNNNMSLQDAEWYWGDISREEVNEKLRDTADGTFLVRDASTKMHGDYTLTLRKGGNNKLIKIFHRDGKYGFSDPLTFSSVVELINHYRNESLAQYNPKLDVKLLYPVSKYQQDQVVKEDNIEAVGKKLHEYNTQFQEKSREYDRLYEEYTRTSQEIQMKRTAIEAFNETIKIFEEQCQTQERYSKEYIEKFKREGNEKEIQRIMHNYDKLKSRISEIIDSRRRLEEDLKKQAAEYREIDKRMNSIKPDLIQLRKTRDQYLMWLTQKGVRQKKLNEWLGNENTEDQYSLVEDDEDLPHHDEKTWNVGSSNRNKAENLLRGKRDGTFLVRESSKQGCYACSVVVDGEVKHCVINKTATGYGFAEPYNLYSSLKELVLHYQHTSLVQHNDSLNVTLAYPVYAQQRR

| Compound | PI3KA_FL Ki |
| --- | --- |
| Nc1ncc(-c2nc(N3CCOCC3)nc3c2CCN3C2CCC(F)(F)C2)cn1 (racemic) [Example 19] | 0.528 nM |
| Nc1ncc(-c2nc(N3CCOCC3)nc3c2CCN3C2CCCOC2)cn1 (racemic) [Example 37] | 7.189 nM |
| CC(=O)N1CCCC(N2CCc3c(-c4cnc(N)nc4)nc(N4CCOCC4)nc32)C1 (racemic) [Example 51] | 18.619 nM |
| CC(=O)N1C[C@@H](F)[C@H](N2CCc3c(-c4cnc(N)nc4)nc(N4CCOCC4)nc32)C1 (single isomer, unassigned) [Example 66] | 0.926 nM |
| CC(=O)N1C[C@H](F)[C@@H](N2CCc3c(-c4cnc(N)nc4)nc(N4CCOCC4)nc32)C1 (single isomer, unassigned) [Example 67] | 1.899 nM |
| CC(=O)N1C[C@@H](N2CCc3c(-c4cnc(N)nc4)nc(N4CCOCC4)nc32)[C@@H](F)C1 (single isomer, unassigned) [Example 75] | 1.106 nM |
| C[C@H]1COCCN1c1nc(-c2cnc(N)nc2)c2c(n1)N([C@@H]1CCC(F)(F)C1)CC2 (single isomer, unassigned) [Example 88] | 0.674 nM |
| C[C@H]1COCCN1c1nc(-c2cnc(N)nc2)c2c(n1)N([C@H]1CCC(F)(F)C1)CC2 (single isomer, unassigned) [Example 89] | 1.247 nM |
| CC(=O)N1CC[C@@H](N2CCc3c(-c4cnc(N)nc4)nc(N4CCOCC4)nc32)C1 [Example 11] | 4.095 nM |
| CC(=O)N1CC[C@H](N2CCc3c(-c4cnc(N)nc4)nc(N4CCOCC4)nc32)C1 [Example 12] | 1.130 nM |
| Nc1ncc(-c2nc(N3CCOCC3)nc3c2CCN3C2CCC2)cn1 [Example 14] | 6.843 nM |
| CS(=O)(=O)[C@H]1C[C@H](N2CCc3c(-c4cnc(N)nc4)nc(N4CCOCC4)nc32)C1 [Example 15] | 0.856 nM |
| Nc1ncc(-c2nc(N3CCOCC3)nc3c2CCN3[C@H]2CCOC2)cn1 [Example 16] | 1.423 nM |
| Nc1ncc(-c2nc(N3CCOCC3)nc3c2CCN3[C@@H]2CCOC2)cn1 [Example 17] | 4.273 nM |
| Nc1ncc(-c2nc(N3CCOCC3)nc3c2CCN3C2CCOCC2)cn1 [Example 18] | 2.706 nM |

Target: truncated PI3Kα (p110α/iSH2 p85α) (Homo sapiens (Human), UniProt P42336)
Test: PI3KA_Act fluorescence polarization kinase assay (Ki)
Assay type: biochemical
Details: 1 mM ATP
Summary of the method: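 Ki values result from fitting fluorescence polarization signals to the Morrison equation for tight-binding competitive inhibitors. The detector was GST-Grp1 PH domain with TAMRA-PIP3, read after a 30 min room-temperature reaction of 0.5 nM truncated PI3Kα and 30 μM PIP2 at pH 7.4 in HEPES/NaCl/MgCl2/DTT/CHAPS buffer. Compounds were tested as 12-point 3-fold dilutions from 3 μM.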

truncated PI3Kα (p110α/iSH2 p85α), sequence (P42336 whole entry, the tested form may be a part): as the sequence (P42336 whole entry) above

| Compound | PI3KA_Act Ki | Ki |
| --- | --- | --- |
| C[C@H]1COCCN1c1nc(-c2cnc(N)nc2)c2c(n1)N([C@H]1[C@@H]3CN(C(=O)OC(C)(C)C)C[C@@H]31)CC2 [Example 521, tert-butyl (1R,5S,6s)-6-{4-(2-aminopyrimidin-5-yl)-2-[(3S)-3-methylmorpholin-4-yl]-5,6-dihydro-7H-pyrrolo[2,3-d]pyrimidin-7-yl}-3-azabicyclo[3.1.0]hexane-3-carboxylate] | 0.170 nM |  |
| C[C@H]1COCCN1c1nc(-c2cnc(N)nc2)c2c(n1)N([C@H]1[C@@H]3CNC[C@@H]31)CC2.Cl [Example 522, 5-{7-[(1R,5S,6s)-3-azabicyclo[3.1.0]hex-6-yl]-2-[(3S)-3-methylmorpholin-4-yl]-6,7-dihydro-5H-pyrrolo[2,3-d]pyrimidin-4-yl}pyrimidin-2-amine hydrochloride] | 6.845 nM |  |
| C[C@H]1COCCN1c1nc(-c2cnc(N)nc2)c2c(n1)N([C@H]1[C@H]3C[C@@H]1N(C(=O)OC(C)(C)C)C3)CC2 [Example 523, tert-butyl (1S,4S,5S)-5-{4-(2-aminopyrimidin-5-yl)-2-[(3S)-3-methylmorpholin-4-yl]-5,6-dihydro-7H-pyrrolo[2,3-d]pyrimidin-7-yl}-2-azabicyclo[2.1.1]hexane-2-carboxylate] |  | 5.21 nM |
| C[C@H]1COCCN1c1nc(-c2cnc(N)nc2)c2c(n1)N([C@@H]1[C@@H]3C[C@H]1N(C(=O)OC(C)(C)C)C3)CC2 [Example 524, tert-butyl (1R,4R,5R)-5-{4-(2-aminopyrimidin-5-yl)-2-[(3S)-3-methylmorpholin-4-yl]-5,6-dihydro-7H-pyrrolo[2,3-d]pyrimidin-7-yl}-2-azabicyclo[2.1.1]hexane-2-carboxylate] |  | 1.87 nM |
| C[C@H]1COCCN1c1nc(-c2cnc(N)nc2)c2c(n1)N([C@H]1[C@@H]3CN[C@H]1C3)CC2 [Example 525, 5-{7-[(1S,4S,5S)-2-azabicyclo[2.1.1]hex-5-yl]-2-[(3S)-3-methylmorpholin-4-yl]-6,7-dihydro-5H-pyrrolo[2,3-d]pyrimidin-4-yl}pyrimidin-2-amine hydrochloride] |  | 4.5 nM |
| C[C@H]1COCCN1c1nc(-c2cnc(N)nc2)c2c(n1)N([C@@H]1[C@H]3CN[C@@H]1C3)CC2 [Example 526, 5-{7-[(1R,4R,5R)-2-azabicyclo[2.1.1]hex-5-yl]-2-[(3S)-3-methylmorpholin-4-yl]-6,7-dihydro-5H-pyrrolo[2,3-d]pyrimidin-4-yl}pyrimidin-2-amine hydrochloride] |  | 9.43 nM |
| C[C@H]1COCCN1c1nc(-c2cnc(N)nc2)c2c(n1)N([C@@]13C[C@@H]1CN(C(=O)OC(C)(C)C)C3)CC2 [Example 527, tert-butyl (1S,5R)-1-{4-(2-aminopyrimidin-5-yl)-2-[(3S)-3-methylmorpholin-4-yl]-5,6-dihydro-7H-pyrrolo[2,3-d]pyrimidin-7-yl}-3-azabicyclo[3.1.0]hexane-3-carboxylate] | <0.018 nM |  |
| C[C@H]1COCCN1c1nc(-c2cnc(N)nc2)c2c(n1)N([C@]13C[C@H]1CN(C(=O)OC(C)(C)C)C3)CC2 [Example 528, tert-butyl (1R,5S)-1-{4-(2-aminopyrimidin-5-yl)-2-[(3S)-3-methylmorpholin-4-yl]-5,6-dihydro-7H-pyrrolo[2,3-d]pyrimidin-7-yl}-3-azabicyclo[3.1.0]hexane-3-carboxylate] | 0.092 nM |  |
| C[C@H]1COCCN1c1nc(-c2cnc(N)nc2)c2c(n1)N([C@@]13CNC[C@@H]1C3)CC2.Cl [Example 529, 5-{7-[(1R,5S)-3-azabicyclo[3.1.0]hex-1-yl]-2-[(3S)-3-methylmorpholin-4-yl]-6,7-dihydro-5H-pyrrolo[2,3-d]pyrimidin-4-yl}pyrimidin-2-amine hydrochloride] | 0.595 nM |  |
| C[C@H]1COCCN1c1nc(-c2cnc(N)nc2)c2c(n1)N([C@]13CNC[C@H]1C3)CC2.Cl [Example 530, 5-{7-[(1S,5R)-3-azabicyclo[3.1.0]hex-1-yl]-2-[(3S)-3-methylmorpholin-4-yl]-6,7-dihydro-5H-pyrrolo[2,3-d]pyrimidin-4-yl}pyrimidin-2-amine hydrochloride] | 2.624 nM |  |
| tert-butyl (cis-3-{4-(2-aminopyrimidin-5-yl)-2-[(3S)-3-methylmorpholin-4-yl]-5,6-dihydro-7H-pyrrolo[2,3-d]pyrimidin-7-yl}cyclobutyl)methylcarbamate [Example 448] | 0.690 nM |  |
| tert-butyl (trans-3-{4-(2-aminopyrimidin-5-yl)-2-[(3S)-3-methylmorpholin-4-yl]-5,6-dihydro-7H-pyrrolo[2,3-d]pyrimidin-7-yl}cyclobutyl)methylcarbamate [Example 449] | 0.294 nM |  |
